Assay results published in ChEMBL document CHEMBL5131397, “Discovery and Optimization of Pyrazole Amides as Inhibitors of ELOVL1” (J Med Chem, 2021).

Tests used:
[1] = Intrinsic clearance in rat hepatocytes assessed per million cells; format: ADME, cell-based, Hepatocyte; details: read-out: CLH
[2] = target: T1, Very long chain fatty acid elongase 1 (Homo sapiens, UniProt Q9BW60); test: Inhibition of ELOVL1 (unknown origin) using C22-acyl-CoA as substrate by radiometric enzyme assay
T1 sequence (Q9BW60 whole entry): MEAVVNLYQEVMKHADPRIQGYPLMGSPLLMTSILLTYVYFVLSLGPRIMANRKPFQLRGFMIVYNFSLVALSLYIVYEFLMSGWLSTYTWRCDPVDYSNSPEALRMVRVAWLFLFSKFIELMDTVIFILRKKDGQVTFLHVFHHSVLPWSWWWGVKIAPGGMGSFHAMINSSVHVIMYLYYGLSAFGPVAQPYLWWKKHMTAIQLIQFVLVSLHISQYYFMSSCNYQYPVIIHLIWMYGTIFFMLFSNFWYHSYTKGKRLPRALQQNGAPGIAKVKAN

[3] = target: T1, Very long chain fatty acid elongase 1; test: Inhibition of ELOVL1 in human HEK2936E cells assessed as reduction of C26:0 LPC synthesis incubated for 48 hrs by cellular assay; format: cell-based
[4] = Intrinsic clearance in human hepatocytes assessed per million cells; format: ADME, cell-based, Hepatocyte; details: read-out: CLH

| SMILES | hepatocyte CLint [1] | IC50 [2] | IC50 [3] | hepatocyte CLint [4] |
| --- | --- | --- | --- | --- |
| O=C(Nc1ccn(-c2ccncc2)n1)C1(c2ccccc2F)CC1 | 80 µL/min/1e6 cells | 1500 nM | 80 nM |  |
| CC[C@@H](C(=O)Nc1ccn(-c2ccccc2)n1)c1ccccc1 | 123 µL/min/1e6 cells | 9500 nM | 650 nM | 88 µL/min/1e6 cells |
| O=C(Nc1ccn(-c2ccncn2)n1)C1(c2ccccc2F)CC1 | 59 µL/min/1e6 cells | 900 nM | 30 nM | 14 µL/min/1e6 cells |
| O=C(Nc1ccn(-c2ccccc2)n1)C1(c2ccccc2)COC1 | 32 µL/min/1e6 cells | 8200 nM | 260 nM | 31 µL/min/1e6 cells |
| O=C(Cc1ccccc1F)Nc1nccc(-c2ccccc2)n1 |  | > 50000 nM | > 5000 nM |  |
| O=C(Cc1ccccc1F)Nc1ccnc(-c2ccccc2)n1 |  | > 50000 nM |  |  |
| O=C(Nc1ccn(-c2ccnc(C(F)(F)F)c2)n1)C1(c2ccccc2F)CC1 | 51 µL/min/1e6 cells | > 50000 nM | > 5000 nM | 8 µL/min/1e6 cells |
| CC(C)(C(=O)Nc1ccn(-c2ccccc2)n1)c1ccccc1 | 262 µL/min/1e6 cells | 2700 nM | 300 nM | 18 µL/min/1e6 cells |
| O=C(Cc1ccccc1F)Nc1ccn(-c2ccccc2)n1 | 182 µL/min/1e6 cells | 1600 nM | 60 nM | 55 µL/min/1e6 cells |
| O=C(Nc1ccn(-c2ccccc2)n1)C1(c2ccccc2)CC1(F)F (stereo not drawn) | 278 µL/min/1e6 cells | 980 nM | 140 nM | 194 µL/min/1e6 cells |
| CCOC(C(=O)Nc1ccn(-c2ccccc2)n1)c1ccccc1 (stereo not drawn) |  | > 50000 nM | > 5000 nM |  |
| C[C@@H](C(=O)Nc1ccn(-c2ccccc2)n1)c1ccccc1 | 313 µL/min/1e6 cells | 1600 nM | 210 nM | 56 µL/min/1e6 cells |
| COc1ccc(C2(C(=O)Nc3ccn(-c4cncc(F)c4)n3)CC2)cc1 | 103 µL/min/1e6 cells | 3700 nM | 640 nM | 11 µL/min/1e6 cells |
| O=C(Nc1ccn(-c2ccccc2)n1)C1(c2ccccc2)CC1 | 111 µL/min/1e6 cells | 500 nM | 20 nM | 38 µL/min/1e6 cells |
| O=C(Cc1ccccc1F)Nc1cccc(-c2ccccc2)n1 |  | > 50000 nM | > 5000 nM |  |
| Cc1cc(-n2ccc(NC(=O)C3(c4ccccc4F)CC3)n2)ccn1 | 78 µL/min/1e6 cells | 21000 nM | 1600 nM | 7 µL/min/1e6 cells |
| O=C(Nc1ccn(-c2ncns2)n1)C1(c2ccccc2F)CC1 | 25 µL/min/1e6 cells | 400 nM | 18 nM | 14 µL/min/1e6 cells |
| COc1ccccc1C1(C(=O)Nc2ccn(-c3cncc(F)c3)n2)CC1 |  | > 50000 nM | > 5000 nM |  |
| COc1cc(-n2ccc(NC(=O)C3(c4ccccc4F)CC3)n2)ccn1 | 130 µL/min/1e6 cells | 1200 nM | 50 nM | 11 µL/min/1e6 cells |
| O=C(Nc1ccn(-c2cncc(F)c2)n1)C1(c2cc(F)ccc2F)CC1 | 25 µL/min/1e6 cells | 550 nM | 170 nM | 6 µL/min/1e6 cells |
| O=C(Cc1ccccc1F)Nc1nc(-c2ccccc2)cs1 | 281 µL/min/1e6 cells | 3200 nM | 280 nM | 102 µL/min/1e6 cells |
| O=C(Nc1ccn(-c2cncc(F)c2)n1)C1(c2ccccc2Cl)CC1 | 61 µL/min/1e6 cells | 4500 nM | 110 nM | 8 µL/min/1e6 cells |
| O=C(Nc1ccn(-c2ccc(F)nc2)n1)C1(c2ccccc2F)CC1 | 23 µL/min/1e6 cells | 800 nM | 23 nM | 6 µL/min/1e6 cells |

| SMILES | hepatocyte CLint [1] | IC50 [2] | IC50 [3] | hepatocyte CLint [4] |
| --- | --- | --- | --- | --- |
| O=C(Cc1ccccc1F)Nc1cnn(-c2ccccc2)n1 | 518 µL/min/1e6 cells | > 8000 nM | 900 nM | 101 µL/min/1e6 cells |
| O=C(Cc1ccccc1)Nc1nc(-c2ccccc2)cs1 | 398 µL/min/1e6 cells | 4000 nM | 500 nM | 127 µL/min/1e6 cells |
| CN(C)C(C(=O)Nc1ccn(-c2ccccc2)n1)c1ccccc1 (stereo not drawn) |  | > 50000 nM | 1700 nM |  |
| O=C(Cc1ccccc1F)Nc1ncc(-c2ccccc2)o1 |  | > 50000 nM |  |  |
| O=C(Nc1ccn(-c2cncc(F)c2)n1)C1(c2ccccc2F)CC1 | 68 µL/min/1e6 cells | 1200 nM | 18 nM | 10 µL/min/1e6 cells |
| O=C(Nc1ccn(-c2cncc(F)c2)n1)C1(c2c(F)cccc2F)CC1 | 13 µL/min/1e6 cells | 1200 nM | 17 nM | 4 µL/min/1e6 cells |
| O=C(Cc1ccccc1F)Nc1cnn(-c2ccccc2)c1 |  | > 50000 nM | > 5000 nM |  |
| O=C(Nc1ccn(-c2cncc(F)c2)n1)C1(c2ccc(Cl)cc2)CC1 | 133 µL/min/1e6 cells | 2400 nM | 340 nM | 5 µL/min/1e6 cells |
| O=C(Nc1ccn(-c2cncc(F)c2)n1)C1(c2ccccc2)CC1 | 50 µL/min/1e6 cells | 560 nM | 22 nM | 7 µL/min/1e6 cells |
| N#Cc1ccccc1C1(C(=O)Nc2ccn(-c3cncc(F)c3)n2)CC1 | 13 µL/min/1e6 cells | 23000 nM | 2500 nM | 5 µL/min/1e6 cells |
| N#Cc1cccc(C2(C(=O)Nc3ccn(-c4cncc(F)c4)n3)CC2)c1 | 60 µL/min/1e6 cells | 2300 nM | 310 nM | 4 µL/min/1e6 cells |
| O=C(Nc1ccn(-c2cncc(F)c2)n1)C1(c2ccc(F)cc2)CC1 | 88 µL/min/1e6 cells | 830 nM | 100 nM | 4 µL/min/1e6 cells |
| O=C(Cc1ccccc1F)Nc1ncn(-c2ccccc2)n1 |  | > 50000 nM | > 5000 nM |  |
| Cc1ccccc1C1(C(=O)Nc2ccn(-c3cncc(F)c3)n2)CC1 | 400 µL/min/1e6 cells | 7500 nM | 400 nM | 40 µL/min/1e6 cells |
| O=C(Cc1ccccc1)Nc1ccn(-c2ccccc2)n1 | 519 µL/min/1e6 cells | 2700 nM | 70 nM | 90 µL/min/1e6 cells |
| O=C(Nc1ccn(-c2ccccc2)n1)C1(c2ccccc2F)CC1 | 237 µL/min/1e6 cells | 500 nM | 12 nM | 30 µL/min/1e6 cells |
| Nc1cc(-n2ccc(NC(=O)C3(c4ccccc4F)CC3)n2)ccn1 | 54 µL/min/1e6 cells | > 20000 nM | 1900 nM | 9 µL/min/1e6 cells |
| C[C@H](C(=O)Nc1ccn(-c2ccccc2)n1)c1ccccc1 | 308 µL/min/1e6 cells | 2000 nM | 38 nM | 37 µL/min/1e6 cells |
| COc1cccc(C2(C(=O)Nc3ccn(-c4cncc(F)c4)n3)CC2)c1 | 355 µL/min/1e6 cells | 1500 nM | 170 nM | 19 µL/min/1e6 cells |
| O=C(Nc1ccn(-c2cncc(F)c2)n1)C1(c2cccc(F)c2F)CC1 | 54 µL/min/1e6 cells | 1300 nM | 140 nM | 6 µL/min/1e6 cells |
| N#Cc1ccc(C2(C(=O)Nc3ccn(-c4cncc(F)c4)n3)CC2)cc1 | 8 µL/min/1e6 cells | 2200 nM | 110 nM | 5 µL/min/1e6 cells |
| CC1(C)CC1(C(=O)Nc1ccn(-c2ccccc2)n1)c1ccccc1 (stereo not drawn) | 239 µL/min/1e6 cells | 4400 nM | 900 nM | 50 µL/min/1e6 cells |
| O=C(Nc1ccn(-c2cncc(F)c2)n1)C1(c2cccc(F)c2)CC1 | 97 µL/min/1e6 cells | 1600 nM | 190 nM | 8 µL/min/1e6 cells |
